Like-named read-outs stand apart in the source and are kept apart here.
Key:
[1] = system: MDA-MB-231 human breast cancer cells; test: Alamar Blue cell viability (antiproliferative) assay; assay type: cell-based; settings: read-out: IC50
[2] = system: HL-60(TB); test: NCI-60 SRB screen, leukemia; assay type: cell-based, human; settings: Homo sapiens
[3] = system: SR; test: NCI-60 SRB screen, leukemia; assay type: cell-based, human; settings: Homo sapiens, 48 h
[4] = system: EKVX; test: NCI-60 SRB screen, non-small cell lung cancer; assay type: cell-based, human; settings: Homo sapiens, 48 h
[5] = system: HOP-62; test: NCI-60 SRB screen, non-small cell lung cancer; assay type: cell-based, human; settings: Homo sapiens
[6] = system: HOP-92; test: NCI-60 SRB screen, non-small cell lung cancer; assay type: cell-based, human; settings: Homo sapiens
[7] = system: NCI-H226; test: NCI-60 SRB screen, non-small cell lung cancer; assay type: cell-based; settings: Homo sapiens
[8] = system: NCI-H23; test: NCI-60 SRB screen, non-small cell lung cancer; assay type: cell-based, human; settings: Homo sapiens
[9] = system: NCI-H460; test: NCI-60 SRB screen, non-small cell lung cancer; assay type: cell-based, human; settings: Homo sapiens
[10] = system: NCI-H552; test: NCI-60 SRB screen, non-small cell lung cancer; assay type: cell-based, human; settings: Homo sapiens, 48 h
[11] = system: COLO 205; test: NCI-60 SRB screen, colon cancer; assay type: cell-based, human; settings: Homo sapiens
[12] = system: HCT-2998; test: NCI-60 SRB screen, colon cancer; assay type: cell-based, human; settings: Homo sapiens, 48 h
[13] = system: HCT-15; test: NCI-60 SRB screen, colon cancer; assay type: cell-based, human; settings: Homo sapiens
[14] = system: HT29; test: NCI-60 SRB screen, colon cancer; assay type: cell-based, human; settings: Homo sapiens
[15] = system: KM12; test: NCI-60 SRB screen, colon cancer; assay type: cell-based, human; settings: Homo sapiens
[16] = system: SW-620; test: NCI-60 SRB screen, colon cancer; assay type: cell-based, human; settings: Homo sapiens
[17] = system: SF539; test: NCI-60 SRB screen, CNS cancer; assay type: cell-based, human; settings: Homo sapiens
[18] = system: SNB-19; test: NCI-60 SRB screen, CNS cancer; assay type: cell-based, human; settings: Homo sapiens
[19] = system: PC-3; test: NCI-60 SRB screen, prostate cancer; assay type: cell-based, human; settings: Homo sapiens
[20] = system: DU-145; test: NCI-60 SRB screen, prostate cancer; assay type: cell-based, human; settings: Homo sapiens
[21] = system: LOX IMVI; test: NCI-60 SRB screen, melanoma; assay type: cell-based, human; settings: Homo sapiens, 48 h
[22] = system: M14; test: NCI-60 SRB screen, melanoma; assay type: cell-based, human; settings: Homo sapiens
[23] = system: MDA-MB-435; test: NCI-60 SRB screen, melanoma; assay type: cell-based, human; settings: Homo sapiens
[24] = system: SK-MEL-5; test: NCI-60 SRB screen, melanoma; assay type: cell-based, human; settings: Homo sapiens
[25] = system: OVCAR-5; test: NCI-60 SRB screen, ovarian cancer; assay type: cell-based, human; settings: Homo sapiens
[26] = system: SK-OV-3; test: NCI-60 SRB screen, ovarian cancer; assay type: cell-based, human; settings: Homo sapiens
[27] = system: 786-0; test: NCI-60 SRB screen, renal cancer; assay type: cell-based, human; settings: Homo sapiens
[28] = system: SN12C; test: NCI-60 SRB screen, renal cancer; assay type: cell-based, human; settings: Homo sapiens, 48 h
[29] = system: MDA-MB-231/ATCC; test: NCI-60 SRB screen, breast cancer; assay type: cell-based, human; settings: Homo sapiens; for IC50: read-out: Antiproliferative Activity IC50
[30] = system: HS 578T; test: NCI-60 SRB screen, breast cancer; assay type: cell-based; settings: Homo sapiens, 48 h
[31] = system: BT-549; test: NCI-60 SRB screen, breast cancer; assay type: cell-based, human; settings: Homo sapiens
[32] = system: T-47D; test: NCI-60 SRB screen, breast cancer; assay type: cell-based, human; settings: Homo sapiens, T47D, 48 h
[33] = system: MCF-7 human breast cancer cells; test: cells
Method: All biochemical assays were performed in triplicate for the determination of mean values reported. The human breast carcinoma cell line MCF-7 was purchased from the European Collection of Animal Cell Cultures (ECACC) and was cultured in Eagle’s minimum essential medium with 10% fetal bovine serum, 2 mM L-glutamine and 100 μg/mL penicillin/streptomycin. The medium was supplemented with 1% non-essential amino acids. […] All cells were sub-cultured 3 times/week by trypsinisation.
Cells were seeded at a density of 5 × 10^3 cells/well (MCF-7) in triplicate in 96-well plates. […] Cell proliferation for MCF-7 and MDA-MB-231 cells was analysed using the Alamar Blue assay (Invitrogen Corp.). […] Experiments were performed in triplicate on at least three separate occasions.

[34] = HL-60(TB), five dose 0.01–100 µM, 48 h
[35] = five dose 0.01–100 µM, read-out: GI50

For `C=CCC1C(=O)N(c2cc(OC)c(OC)c(OC)c2)C1c1ccc(OC)c(O)c1` (centres unmarked) [10p, 4-(3-Hydroxy-4-methoxyphenyl)-1-(3,4,5-trimethoxyphenyl)-3-allylazetidin-2-one], which IC50 [1] is on record?
The IC50 was 27 nM.

And the GI50 [2, 34]?
Its GI50 is 32.3 nM.

And the GI50 ([2]; HL-60, NCI screen)?
The GI50 was under 34 nM.

What about the GI50 [3, 35] of the same molecule?
The GI50 was 31.4 nM.

And the GI50 [4, 35]?
The GI50 was 76.4 nM.

What about the GI50 ([5]; HOP-62, five dose 0.01–100 µM, 48 h, read-out: GI50) of the same molecule?
Its GI50 is 61 nM.

And the GI50 ([6]; HOP-92, five dose 0.01–100 µM, 48 h, read-out: GI50)?
Its GI50 is 23.8 nM.

And the GI50 ([7]; NCI-H226, five dose 0.01–100 µM, 48 h, read-out: GI50)?
The GI50 was 56 nM.

What about the GI50 ([8]; NCI-H23, five dose 0.01–100 µM, 48 h, read-out: GI50) of the same molecule?
Its GI50 is 30.7 nM.

What about the GI50 ([9]; NCI-H460, five dose 0.01–100 µM, 48 h, read-out: GI50) of the same molecule?
Its GI50 is 32 nM.

What about the GI50 ([10]; NCI-H552, five dose 0.01–100 µM, read-out: GI50) of the same molecule?
Its GI50 is 15.1 nM.

And the GI50 ([11]; COLO 205, five dose 0.01–100 µM, 48 h, read-out: GI50)?
Its GI50 is 563 nM.

What about the GI50 ([12]; HCT-2998, five dose 0.01–100 µM, read-out: GI50) of the same molecule?
The GI50 was 29.9 nM.

What about the GI50 ([13]; HCT-15, five dose 0.01–100 µM, 48 h, read-out: GI50) of the same molecule?
The GI50 was 36.7 nM.

And the GI50 ([14]; HT-29, HT29, five dose 0.01–100 µM, 48 h, read-out: GI50)?
Its GI50 is 360 nM.

What about the GI50 ([15]; KM12, five dose 0.01–100 µM, 48 h, read-out: GI50) of the same molecule?
The GI50 was 22.4 nM.

And the GI50 ([16]; SW-620, five dose 0.01–100 µM, 48 h, read-out: GI50)?
The GI50 was 42.2 nM.

What about the GI50 ([17]; SF-539, SF539, five dose 0.01–100 µM, 48 h, read-out: GI50) of the same molecule?
The GI50 was 38.2 nM.

What about the GI50 ([18]; SNB-19, five dose 0.01–100 µM, 48 h, read-out: GI50) of the same molecule?
Its GI50 is 58.9 nM.

And the GI50 ([19]; PC-3, five dose 0.01–100 µM, 48 h, read-out: GI50)?
Its GI50 is 40.3 nM.

And the GI50 ([20]; DU-145, five dose 0.01–100 µM, 48 h, read-out: GI50)?
The GI50 was 26.6 nM.

And the GI50 [21, 35]?
Its GI50 is 33.9 nM.

And the GI50 ([22]; M14, five dose 0.01–100 µM, 48 h, read-out: GI50)?
The GI50 was 17.6 nM.

And the GI50 ([23]; MDA-MB-435, five dose 0.01–100 µM, 48 h, read-out: GI50)?
The GI50 was 20.5 nM.

What about the GI50 ([24]; SK-MEL-5, five dose 0.01–100 µM, 48 h, read-out: GI50) of the same molecule?
Its GI50 is 24.9 nM.

And the GI50 ([25]; OVCAR-5, five dose 0.01–100 µM, 48 h, read-out: GI50)?
Its GI50 is 61.8 nM.

And the GI50 ([26]; SK-OV-3, five dose 0.01–100 µM, 48 h, read-out: GI50)?
Its GI50 is 36.6 nM.

And the GI50 ([27]; 786-0, five dose 0.01–100 µM, 48 h, read-out: GI50)?
Its GI50 is 25.5 nM.

What about the GI50 [28, 35] of the same molecule?
The GI50 was 29.8 nM.

And the GI50 ([29]; MDA-MB-231/ATCC, five dose 0.01–100 µM, 48 h, read-out: GI50)?
Its GI50 is 24 nM.

What about the IC50 ([29]; MDA-MB-231, obtained from NCI, five concentrations 0.01–100 μM, 48 h) of the same molecule?
Its IC50 is 27.4 nM.

What about the GI50 ([30]; HS 578T, five dose 0.01–100 µM, read-out: GI50) of the same molecule?
Its GI50 is 51.7 nM.

What about the GI50 ([31]; BT-549, five dose 0.01–100 µM, 48 h, read-out: GI50) of the same molecule?
Its GI50 is 18.8 nM.

And the GI50 ([32]; T-47D, five dose 0.01–100 µM, read-out: GI50)?
Its GI50 is 63500 nM.

What about the IC50 ([33]; MCF7, read-out: Antiproliferative Activity IC50, MCF-7, eight concentrations 0.001–50 μM, mean ± SEM, Table 3) of the same molecule?
The IC50 was 31 ± 2 nM.

Which results are given for `C=CC=CC1C(=O)N(c2cc(OC)c(OC)c(OC)c2)C1c1ccc(OC)cc1` (centres unmarked) [11h, 3-(Buta-1,3-dienyl)-4-(4-methoxyphenyl)-1-(3,4,5-trimethoxyphenyl)azetidin-2-one]?
IC50 [1]: 31 nM; GI50 [2, 34]: 33.8 nM; GI50 ([2]; HL-60, NCI screen): < 34 nM; GI50 [3]: 35.6 nM; GI50 [4]: 83.4 nM; GI50 ([5]; HOP-62, 48 h): 55.8 nM; GI50 ([6]; HOP-92, 48 h): 24.4 nM; GI50 ([7]; NCI-H226, 48 h): 76.8 nM; GI50 ([8]; NCI-H23, 48 h): 32.1 nM; GI50 ([9]; NCI-H460, 48 h): 33.2 nM; GI50 [10]: 15.1 nM; GI50 ([11]; COLO 205, 48 h): 26.5 nM; GI50 [12]: 30 nM; GI50 ([13]; HCT-15, 48 h): 40.5 nM; IC50 ([14]; HT-29): 33 nM; GI50 ([14]; HT-29, 48 h): 33.2 nM; GI50 ([15]; KM12, 48 h): 30.4 nM; GI50 ([16]; SW-620, 48 h): 43.8 nM; GI50 ([17]; SF-539, 48 h): 33.2 nM; GI50 ([18]; SNB-19, 48 h): 65.4 nM; GI50 ([19]; PC-3, 48 h): 40.4 nM; GI50 ([20]; DU-145, 48 h): 27 nM; GI50 [21]: 32.7 nM; GI50 ([22]; M14, 48 h): 19.4 nM; GI50 ([23]; MDA-MB-435, 48 h): 19.1 nM; GI50 ([24]; SK-MEL-5, 48 h): 26 nM; GI50 ([25]; OVCAR-5, 48 h): 94.8 nM; GI50 ([26]; SK-OV-3, 48 h): 37.3 nM; GI50 ([27]; 786-0, 48 h): 23.1 nM; GI50 [28]: 50.8 nM; GI50 ([29]; MDA-MB-231, 48 h): 29.6 nM; IC50 ([29]; MDA-MB-231, 48 h): 31.1 nM; GI50 ([30]; Hs-578T): 24.7 nM; GI50 ([31]; BT-549, 48 h): 20.3 nM; GI50 [32]: 56200 nM; IC50 ([33]; MCF7, read-out: Antiproliferative Activity IC50): 33 ± 5 nM

From publication PMC10385824, “Antiproliferative and Tubulin-Destabilising Effects of 3-(Prop-1-en-2-yl)azetidin-2-Ones and Related Compounds in MCF-7 and MDA-MB-231 Breast Cancer Cells” (Pharmaceuticals, 2023)
